From US20050101595A1, “N-containing cycloalkyl-substituted amino-thiazole derivatives and pharmaceutical compositions for inhibiting cell proliferation and methods for their use” (PFIZER INC., priority 2003, published 2005)

Key:
[1] = biological target: human CDK4 and genetically truncated (1-264) cyclin D3 (Homo sapiens, UniProt P11802); test: Inhibition of CDK4/Cyclin D Retinoblastoma Kinase Activity; format: biochemical
How it was run: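 Human CDK4/truncated cyclin D3 (1-264) complex from baculovirus-infected insect cells, 5 nM, phosphorylating Rb fragment (residues 386-928, His-tagged) with 25 μM [32/33P]ATP in HEPES pH 7.4, MgCl2, 2% DMSO at 30° C. for 20 min (60 min for tight binders). Filter-captured radioactivity by phosphorimager; apparent Ki from competitive or tight-binding fits.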

[2] = tested on: HCT-116 cell line; test: Inhibition of cell growth, tetrazolium salt (MTT) assay; format: cell-based; settings: for HCT-116 % Inhibition at 0.25 μM: 0.25 μM compound
How it was run: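 First, cells were seeded in McCoy's 5A medium and held 4 h. Next, inhibitor concentrations in 0.5% (v/v) DMSO were applied for three to five days at 37° C, 5% CO2. Finally, after 4 h with 0.2 mg/mL MTT and medium removal, solubilized formazan was measured at 540 nm.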

[3] = biological target: CDK2/Cyclin A (Homo sapiens, UniProt P24941); test: Inhibition of CDK2/Cyclin A Retinoblastoma Kinase Activity; format: biochemical
How it was run: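 Baculovirus-expressed CDK2 complexed with proteolyzed cyclin A (10 or 19 nM), Rb fragment substrate, 25 μM [32P/33P]ATP, HEPES pH 7.4, 30 °C for 60 or 75 min under initial-rate conditions. Filter capture and phosphorimager readout; apparent Ki fitted to competitive or tight-binding competitive inhibition.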

[4] = 0.1 μM compound, HCT-116, Table 4

Sequence of human CDK4 and genetically truncated (1-264) cyclin D3 (P11802 whole entry, the tested form may be a part): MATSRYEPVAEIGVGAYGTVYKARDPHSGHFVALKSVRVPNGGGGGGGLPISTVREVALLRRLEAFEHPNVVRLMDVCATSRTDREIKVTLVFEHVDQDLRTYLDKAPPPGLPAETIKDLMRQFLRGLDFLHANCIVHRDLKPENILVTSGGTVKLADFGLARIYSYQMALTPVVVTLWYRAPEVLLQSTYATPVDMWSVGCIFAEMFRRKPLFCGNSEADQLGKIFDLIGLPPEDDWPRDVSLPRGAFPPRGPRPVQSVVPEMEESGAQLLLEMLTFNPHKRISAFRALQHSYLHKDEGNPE
Sequence of human CDK4 and genetically truncated (1-264) cyclin D3 (P30281 1-264 partner): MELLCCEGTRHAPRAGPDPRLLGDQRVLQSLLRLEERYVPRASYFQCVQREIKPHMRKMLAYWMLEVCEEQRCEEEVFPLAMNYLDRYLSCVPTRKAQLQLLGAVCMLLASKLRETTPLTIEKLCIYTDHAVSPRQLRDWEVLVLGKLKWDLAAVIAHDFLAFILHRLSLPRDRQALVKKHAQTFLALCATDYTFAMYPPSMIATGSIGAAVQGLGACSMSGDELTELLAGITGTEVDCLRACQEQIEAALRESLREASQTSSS

SMILES	CDK4 % Inhibition at 0.03 μM ([1]; 0.03 μM compound, Table 4)	CDK2 % Inhibition at 0.03 μM ([3]; 0.03 μM compound, Table 4)	CDK4 % Inhibition at 0.03 μM ([1]; at 0.03 μM)	CDK2 % Inhibition at 0.03 μM ([3]; at 0.03 μM)	HCT-116 % Inhibition at 0.1 μM [2, 4]	HCT-116 % Inhibition at 0.25 μM ([2]; HCT-116, Table 4)	HCT-116 % Inhibition at 0.1 μM ([2]; HCT-116 cells, at 0.1 μM)	HCT-116 5 Inhibition at 0.25 μM ([2]; HCT-116 cells)
Nc1nc(NC2CCN(C(=O)OCC3c4ccccc4-c4ccccc43)CC2)sc1C(=O)c1c(F)cccc1F [Example Q82]	15%	−12%	–	–	0%	28%	–	–
Nc1nc(NC2CCN(C(=S)Oc3ccccc3)CC2)sc1C(=O)c1c(F)cccc1F [Example Q83]	55%	72%	–	–	2%	25%	–	–
Nc1nc(NC2CCN(C(=O)Oc3ccc([N+](=O)[O-])cc3)CC2)sc1C(=O)c1c(F)cccc1F [Example Q84]	88%	63%	–	–	3%	40%	–	–
Nc1nc(NC2CCN(C(=O)OCc3ccc([N+](=O)[O-])cc3)CC2)sc1C(=O)c1c(F)cccc1F [Example Q85]	55%	42%	–	–	1%	31%	–	–
Nc1nc(NC2CCN(C(=O)C(c3ccccc3)c3ccccc3)CC2)sc1C(=O)c1c(F)cccc1F [Example R1]	–	–	3%	−34%	–	–	0%	32
COC(=O)CC(=O)N1CCC(Nc2nc(N)c(C(=O)c3c(F)cccc3F)s2)CC1 [Example R2]	–	–	13%	−24%	–	–	1%	49
CCOC(=O)CCCC(=O)N1CCC(Nc2nc(N)c(C(=O)c3c(F)cccc3F)s2)CC1 [Example R3]	–	–	42%	−6%	–	–	8%	37
COC(=O)CCCCC(=O)N1CCC(Nc2nc(N)c(C(=O)c3c(F)cccc3F)s2)CC1 [Example R4]	–	–	32%	−5%	–	–	3%	47
Nc1nc(NC2CCN(C(=O)C(=O)c3c[nH]c4ccccc34)CC2)sc1C(=O)c1c(F)cccc1F [Example R5]	–	–	9%	−31%	–	–	13%	49
CC(Oc1ccccc1)C(=O)N1CCC(Nc2nc(N)c(C(=O)c3c(F)cccc3F)s2)CC1 (stereo not shown) [Example R9]	–	–	19%	−15%	–	–	5%	37
CCC(C(=O)N1CCC(Nc2nc(N)c(C(=O)c3c(F)cccc3F)s2)CC1)c1ccccc1 (stereo not shown) [Example R10]	–	–	29%	5%	–	–	0%	40
Cc1onc(-c2ccccc2Cl)c1C(=O)N1CCC(Nc2nc(N)c(C(=O)c3c(F)cccc3F)s2)CC1 [Example R11]	–	–	49%	4%	–	–	0%	37
Nc1nc(NC2CCN(C(=O)COc3cc(Cl)c(Cl)cc3Cl)CC2)sc1C(=O)c1c(F)cccc1F [Example R12]	–	–	23%	−10%	–	–	0%	48
Nc1nc(NC2CCN(C(=O)c3ccc(N=Nc4ccccc4)cc3)CC2)sc1C(=O)c1c(F)cccc1F [Example R13]	–	–	69%	32%	–	–	0%	42
Nc1nc(NC2CCN(C(=O)c3cc4ccccc4s3)CC2)sc1C(=O)c1c(F)cccc1F [Example R17]	–	–	73%	66%	–	–	0%	45
Nc1nc(NC2CCN(C(=O)c3cccnc3Cl)CC2)sc1C(=O)c1c(F)cccc1F [Example R18]	–	–	46%	25%	–	–	0%	45
CCSc1ncccc1C(=O)N1CCC(Nc2nc(N)c(C(=O)c3c(F)cccc3F)s2)CC1 [Example R19]	–	–	54%	37%	–	–	0%	46
Cc1onc(-c2ccccc2)c1C(=O)N1CCC(Nc2nc(N)c(C(=O)c3c(F)cccc3F)s2)CC1 [Example R21]	–	–	38%	2%	–	–	0%	47

Continued, in another order:

CDK4 % Inhibition at 0.03 μM ([1]; 0.03 μM compound, Table 4)	CDK2 % Inhibition at 0.03 μM ([3]; 0.03 μM compound, Table 4)	CDK4 % Inhibition at 0.03 μM ([1]; at 0.03 μM)	CDK2 % Inhibition at 0.03 μM ([3]; at 0.03 μM)	SMILES	HCT-116 % Inhibition at 0.1 μM [2, 4]	HCT-116 % Inhibition at 0.25 μM ([2]; HCT-116, Table 4)	HCT-116 % Inhibition at 0.1 μM ([2]; HCT-116 cells, at 0.1 μM)	HCT-116 5 Inhibition at 0.25 μM ([2]; HCT-116 cells)
50%	20%	–	–	Nc1nc(NC2CCN(C(=O)c3cccnc3)CC2)sc1C(=O)c1c(F)cccc1F [Example Q80]	10%	27%	–	–
19%	6%	–	–	Nc1nc(NC2CCN(C(=O)c3ccncc3)CC2)sc1C(=O)c1c(F)cccc1F [Example Q81]	4%	37%	–	–
77%	54%	–	–	COC(=O)c1ccc(OC(=O)N2CCC(Nc3nc(N)c(C(=O)c4c(F)cccc4F)s3)CC2)cc1 [Example Q87]	4%	37%	–	–
–	–	42%	14%	CCOc1ccccc1C(=O)N1CCC(Nc2nc(N)c(C(=O)c3c(F)cccc3F)s2)CC1 [Example R6]	–	–	12%	51
–	–	29%	−3%	Nc1nc(NC2CCN(C(=O)c3ccc4c(c3)OCO4)CC2)sc1C(=O)c1c(F)cccc1F [Example R7]	–	–	7%	46
–	–	13%	−11%	COc1ccc(C(=O)N2CCC(Nc3nc(N)c(C(=O)c4c(F)cccc4F)s3)CC2)c(OC)c1 [Example R8]	–	–	8%	41
–	–	49%	19%	CCCCCOc1ccc(C(=O)N2CCC(Nc3nc(N)c(C(=O)c4c(F)cccc4F)s3)CC2)cc1 [Example R14]	–	–	0%	46
–	–	12%	−29%	COC(C(=O)N1CCC(Nc2nc(N)c(C(=O)c3c(F)cccc3F)s2)CC1)(c1ccccc1)C(F)(F)F (stereo not shown) [Example R16]	–	–	6%	41
–	–	85%	59%	Nc1nc(NC2CCN(C(=O)c3ccc(Cl)nc3)CC2)sc1C(=O)c1c(F)cccc1F [Example R20]	–	–	0%	42
–	–	58%	22%	Nc1nc(NC2CCN(C(=O)c3ccc(OC(F)(F)F)cc3)CC2)sc1C(=O)c1c(F)cccc1F [Example R22]	–	–	7%	48
